Data as given in patent publication US12600725B2 (Memorial Sloan-Kettering Cancer Center, priority 2013, dated 2026).

Experiments:
Hsp90α = Hsp90α (Homo sapiens, UniProt P07900); assay: biochemical; settings: FP competition, 6 nM Cy3B-GM, 10 nM protein, 4° C. for 24 h
Grp94 = Grp94 (Canis lupus familiaris, UniProt P41148); settings: read-out: Grp94; FP competition, 6 nM Cy3B-GM, 10 nM protein, 4° C. for 24 h
Hsp90β = Hsp90β (Homo sapiens, UniProt P08238)
Trap-1 = target: T1, Trap-1 (Homo sapiens, UniProt Q12931); assay: biochemical
T1 sequence (Q12931 60-704): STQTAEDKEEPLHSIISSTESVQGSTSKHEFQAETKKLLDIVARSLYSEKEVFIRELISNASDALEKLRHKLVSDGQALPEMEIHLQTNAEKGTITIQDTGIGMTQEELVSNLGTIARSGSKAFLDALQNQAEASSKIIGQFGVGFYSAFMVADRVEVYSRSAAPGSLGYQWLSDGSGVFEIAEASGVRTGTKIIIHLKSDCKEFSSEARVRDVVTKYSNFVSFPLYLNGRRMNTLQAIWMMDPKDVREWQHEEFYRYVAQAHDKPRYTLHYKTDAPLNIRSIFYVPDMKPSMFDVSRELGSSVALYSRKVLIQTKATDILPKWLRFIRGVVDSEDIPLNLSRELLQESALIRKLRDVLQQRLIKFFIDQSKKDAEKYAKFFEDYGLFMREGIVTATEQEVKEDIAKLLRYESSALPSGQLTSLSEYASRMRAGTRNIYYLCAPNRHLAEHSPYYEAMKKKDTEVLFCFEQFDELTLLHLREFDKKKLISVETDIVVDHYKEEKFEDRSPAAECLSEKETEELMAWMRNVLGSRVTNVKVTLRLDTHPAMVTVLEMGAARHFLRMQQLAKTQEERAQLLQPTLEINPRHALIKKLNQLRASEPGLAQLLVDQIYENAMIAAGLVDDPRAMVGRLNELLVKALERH

Sequence of Hsp90β (P08238 whole entry): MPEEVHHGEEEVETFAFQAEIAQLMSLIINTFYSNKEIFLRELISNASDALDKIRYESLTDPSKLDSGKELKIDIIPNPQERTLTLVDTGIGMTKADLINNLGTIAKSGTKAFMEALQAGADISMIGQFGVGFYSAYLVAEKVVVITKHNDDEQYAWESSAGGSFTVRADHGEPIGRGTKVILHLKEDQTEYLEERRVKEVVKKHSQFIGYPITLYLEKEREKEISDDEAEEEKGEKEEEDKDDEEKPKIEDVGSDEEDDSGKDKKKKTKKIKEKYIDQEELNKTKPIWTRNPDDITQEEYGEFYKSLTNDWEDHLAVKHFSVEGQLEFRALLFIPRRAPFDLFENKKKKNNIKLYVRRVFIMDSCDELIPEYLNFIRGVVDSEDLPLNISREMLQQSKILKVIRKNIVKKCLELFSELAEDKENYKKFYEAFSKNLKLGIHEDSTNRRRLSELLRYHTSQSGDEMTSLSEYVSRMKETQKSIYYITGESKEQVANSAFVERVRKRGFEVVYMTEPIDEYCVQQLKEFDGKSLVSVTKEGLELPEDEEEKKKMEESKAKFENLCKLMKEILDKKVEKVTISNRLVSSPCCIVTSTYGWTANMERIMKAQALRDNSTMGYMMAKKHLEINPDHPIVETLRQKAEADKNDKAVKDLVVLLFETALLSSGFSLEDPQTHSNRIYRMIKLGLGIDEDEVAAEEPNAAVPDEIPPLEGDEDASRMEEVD
Sequence of Grp94 (P41148 with tags, fused parts or gaps DELINS287-327GGGG): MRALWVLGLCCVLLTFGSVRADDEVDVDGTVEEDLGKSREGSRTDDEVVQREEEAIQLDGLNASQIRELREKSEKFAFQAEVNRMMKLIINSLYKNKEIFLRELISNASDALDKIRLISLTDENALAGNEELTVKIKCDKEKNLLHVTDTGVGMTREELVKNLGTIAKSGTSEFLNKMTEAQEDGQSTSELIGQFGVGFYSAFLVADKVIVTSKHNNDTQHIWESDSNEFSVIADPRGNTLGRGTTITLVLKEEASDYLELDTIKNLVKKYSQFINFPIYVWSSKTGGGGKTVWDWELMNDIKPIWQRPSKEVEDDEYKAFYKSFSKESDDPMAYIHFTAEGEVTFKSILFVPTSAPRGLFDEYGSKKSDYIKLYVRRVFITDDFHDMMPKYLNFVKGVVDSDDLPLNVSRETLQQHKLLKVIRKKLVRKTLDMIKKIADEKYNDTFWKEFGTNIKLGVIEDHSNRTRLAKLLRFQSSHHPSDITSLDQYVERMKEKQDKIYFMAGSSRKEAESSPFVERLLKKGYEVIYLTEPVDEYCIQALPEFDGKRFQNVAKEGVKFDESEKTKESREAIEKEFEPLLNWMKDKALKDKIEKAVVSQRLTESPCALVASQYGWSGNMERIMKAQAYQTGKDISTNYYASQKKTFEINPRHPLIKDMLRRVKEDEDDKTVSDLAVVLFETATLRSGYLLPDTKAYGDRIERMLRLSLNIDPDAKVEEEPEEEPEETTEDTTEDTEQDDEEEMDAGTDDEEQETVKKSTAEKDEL

IC50 (Hsp90α) [µM] | IC50 (Grp94) [µM] | IC50 (Hsp90β) [µM] | IC50 (Trap-1) [µM] | SMILES
> 100 | > 100 | > 100 |  | C#CCCCn1cnc(N)c2nc(Sc3ccccc3OC)nc1-2 [PU-H46]
> 500 | 2.37 ± 0.79 | > 500 |  | C#CCCCn1cnc(N)c2nc(Sc3ccc(Cl)cc3Cl)nc1-2 [PU-H38]
2.18 ± 0.1 | 0.53 ± 0.03 | 2.82 | 2.18 ± 0.55 | C#CCCCn1c(Sc2ccc(Br)cn2)nc2c(N)ncnc21 [PDP-I-60-N9]
> 100 | 0.5 ± 0.39 | > 100 | 7.64 ± 2.15 | C#CCCCn1c(Sc2ccc(C(F)(F)F)cc2C(F)(F)F)nc2c(N)ncnc21 [PDP-122]
> 100 | 1.58 | > 100 | 34.4 | C#CCCCn1c(Sc2ccc(Cl)cc2C(F)(F)F)nc2c(N)ncnc21 [PDP-117A]
> 100 | 5.21 | > 100 | 58.8 | C#CCCCn1cnc(N)c2nc(Sc3cc(Cl)cc(Cl)c3Cl)nc1-2 [PDP-125B]
> 100 | 35.3 ± 5 | > 100 |  | C#CCCCn1cnc(N)c2nc(Sc3cc(Cl)ccc3Cl)nc1-2 [PU-H43]
> 100 | 1.52 ± 0.03 | > 100 | > 100 | CC(Br)CCCn1c(Sc2cc(Cl)cc(Cl)c2)nc2c(N)ncnc21 (stereo not drawn) [PDP-99A, 9-(4-Bromopentyl)-8-((3,5-dichlorophenyl)thio)-9H-purin-6-amine]
> 100 | 0.19 ± 0.01 | > 100 | 6.04 ± 0.55 | C#CCCCn1c(Sc2cc(Cl)cc(Cl)c2Cl)nc2c(N)ncnc21 [PDP-125A]
 | 0.22 ± 0.02 |  | > 100 | C#CCCCn1c(Sc2cc(Cl)cc(Br)c2)nc2c(N)ncnc21 [PDP-I-53-N9]
> 100 | 8.7 | > 100 | 34.1 | C#CCCCn1cnc(N)c2nc(Sc3ccc(Cl)c(Cl)c3Cl)nc1-2 [PDP-126B]
 | 0.46 ± 0.04 |  | > 50 | Nc1ncnc2c1nc(Sc1cc(Cl)cc(Cl)c1)n2CCCC(F)(F)F [PDP-I-15-N9, 8-((3,5-Dichlorophenyl)thio)-9-(4,4,4-trifluorobutyl)-9H-purin-6-amine]
4.82 ± 1.05 | 0.42 ± 0.04 | 10.2 ± 1.62 | 2.35 ± 0.09 | C#CCCCn1c(Sc2ccc(Cl)c(Cl)c2)nc2c(N)ncnc21 [PDP-I-25-N9]
> 100 | 1.65 ± 0.31 | > 100 | > 100 | Nc1ncnc2c1nc(Sc1cc(Cl)cc(Cl)c1)n2CCCCCC(F)(F)F [PDP-101B, 8-((3,5-Dichlorophenyl)thio)-9-(6,6,6-trifluorohexyl)-9H-purin-6-amine]
> 100 | 1.13 ± 0.2 | > 100 |  | C#CCCCn1c(Sc2ccc(OC)cc2)nc2c(N)ncnc21 [PU-H1]
> 500 | 91.3 ± 2.16 | > 250 | 227 ± 6.6 | CCC[C@H](C)n1c(Cc2cc(OC)c(OC)c(OC)c2)nc2c(N)ncnc21 [PU-34]
5.9 ± 0.5 | 2.3 ± 0.1 | 2.5 ± 0.2 |  | C#CCCCn1cnc(N)c2nc(Sc3cc(Br)ccc3OC)nc1-2 [PU-H63]
> 100 | 200 | > 100 |  | C#CCCCn1cnc(N)c2nc(Sc3cc(Cl)ccc3C(F)(F)F)nc1-2 [PU-H53]
> 250 | 2.1 ± 0.56 | > 250 |  | C#CCCCn1c(Sc2c(C)cc(C)cc2C)nc2c(N)ncnc21 [PU-H36]
> 100 | 29 ± 9 | > 100 |  | C#CCCCn1c(Sc2ccccc2CO)nc2c(N)ncnc21 [PU-H34]
> 100 | 0.65 ± 0.05 | > 100 | > 100 | C#CCCCCn1c(Sc2cc(Cl)cc(Cl)c2)nc2c(N)ncnc21 [PDP-112A, 8-((3,5-Dichlorophenyl)thio)-9-(hex-5-yn-1-yl)-9H-purin-6-amine]
> 100 | 11.6 | > 100 | > 100 | Nc1ncn(Cc2ccccc2)c2nc(Sc3cc(Cl)cc(Cl)c3)nc1-2 [PDP-107B, 3-Benzyl-8-((3,5-dichlorophenyl)thio)-3H-purin-6-amine]
> 50 | 12.8 ± 0.86 | > 100 | > 100 | Nc1ncn(CCC(F)(F)F)c2nc(Sc3cc(Cl)cc(Cl)c3)nc1-2 [PDP-I-13-N3, 8-((3,5-Dichlorophenyl)thio)-3-(3,3,3-trifluoropropyl)-3H-purin-6-amine]

IC50 (Hsp90α) [µM] | IC50 (Grp94) [µM] | IC50 (Hsp90β) [µM] | IC50 (Trap-1) [µM] | SMILES
> 100 | 2.08 ± 1.49 | > 100 |  | C#CCCCn1cnc(N)c2nc(Sc3cc(Cl)c(Cl)cc3Cl)nc1-2 [PU-H52]
> 100 | > 100 | > 100 | > 100 | Nc1ncn(CCCCCC(F)(F)F)c2nc(Sc3cc(Cl)cc(Cl)c3)nc1-2 [PDP-101A, 8-((3,5-Dichlorophenyl)thio)-3-(6,6,6-trifluorohexyl)-3H-purin-6-amine]
> 50 | 0.133 | > 100 | > 50 | C#CCCCn1c(Sc2cc(Br)cc(I)c2)nc2c(N)ncnc21 [PDP-108A]
> 100 | 2.78 ± 0.21 | > 100 | > 100 | C#CCCCn1c(Sc2cc(Cl)cc3c(Cl)ccnc23)nc2c(N)ncnc21 [PDP-I-79-N9]
> 100 | 185 ± 15 | > 100 |  | C#CCCCn1cnc(N)c2nc(Sc3cc(C)ccc3C)nc1-2 [PU-H29]
> 50 | 0.57 ± 0.08 | > 100 | 10.1 ± 1.13 | Nc1ncnc2c1nc(Sc1cc(Cl)cc(Cl)c1)n2CCC(F)(F)F [PDP-I-13-N9, 8-((3,5-Dichlorophenyl)thio)-9-(3,3,3-trifluoropropyl)-9H-purin-6-amine]
> 100 | > 10 | > 100 | > 100 | C#CCCCn1cnc(N)c2nc(Sc3cc(Br)cc(OC(F)(F)F)c3)nc1-2 [PDP-120B]
> 100 | 2.16 ± 0.21 | > 100 | > 100 | C#CCCCn1c(Sc2cccc3ccccc23)nc2c(N)ncnc21 [PDP-I-16-N9]
> 100 | > 5 |  | > 50 | Nc1ncnc2c1nc(Sc1cc(Cl)cc(Cl)c1)n2Cc1ccccc1 [PDP-107A, 9-Benzyl-8-((3,5-dichlorophenyl)thio)-9H-purin-6-amine]
> 100 | 1.4 ± 0.2 | > 100 |  | C#CCCCn1c(Sc2ccccc2OC(F)(F)F)nc2c(N)ncnc21 [PU-H9]
28.9 | 1.9 |  | 4.4 | CC(C)(CO)NCCn1c(Sc2ccc(Cl)cc2Cl)nc2c(N)ncnc21 [HJP-V-84, 2-((2-(6-Amino-8-((2,4-dichlorophenyl)thio)-9H-purin-9-yl)ethyl)amino)-2-methylpropan-1-ol]
> 100 | > 100 | > 100 |  | C#CCCCn1cnc(N)c2nc(Sc3ccccc3CO)nc1-2 [PU-H35]
> 100 | 106 | > 100 |  | C#CCCCn1cnc(N)c2nc(Sc3ccccc3OC(F)(F)F)nc1-2 [PU-H48]
> 100 | > 100 | > 100 |  | C#CCCCn1cnc(N)c2nc(Sc3cc(C)cc(C)c3)nc1-2 [PU-H45]
9.2 | 2.3 |  | 2.6 | CC(C)(O)CNCCn1c(Sc2ccc(Cl)cc2Cl)nc2c(N)ncnc21 [HJP-V-85, 1-((2-(6-Amino-8-((2,4-dichlorophenyl)thio)-9H-purin-9-yl)ethyl)amino)-2-methylpropan-2-ol]
> 100 | > 10 |  | > 100 | CC(Br)CCCn1cnc(N)c2nc(Sc3cc(Cl)cc(Cl)c3)nc1-2 (stereo not drawn) [PDP-99B, 3-(4-Bromopentyl)-8-((3,5-dichlorophenyl)thio)-3H-purin-6-amine]
> 100 |  | > 100 |  | C#CCCCn1cnc(N)c2nc(Sc3ccccc3Cl)nc1-2 [PU-H47]
 | 0.28 ± 0.06 | > 50 | 2.62 ± 0.28 | C#CCCCn1c(Sc2ccc(Br)cc2Cl)nc2c(N)ncnc21 [PDP-I-61-N9]
 | 0.5 ± 0.2 | 6.5 ± 2.3 |  | C#CCCCn1c(Sc2cc(Cl)ccc2C(F)(F)F)nc2c(N)ncnc21 [PU-H2]
47.4 ± 2.2 | 34.5 ± 3.5 | 22.4 ± 2.8 |  | C#CCCCn1c(Sc2ccc(OC)cc2OC)nc2c(N)ncnc21 [PU-H8]
> 100 | 20 ± 5 | > 100 |  | C#CCCCn1cnc(N)c2nc(Sc3c(C)cc(C)cc3C)nc1-2 [PU-H37]
> 100 | 0.35 ± 0.05 | > 100 |  | C#CCCCn1c(Sc2ccccc2Cl)nc2c(N)ncnc21 [PU-H6]
110 ± 20 | 3.2 ± 0.4 | 92 ± 2 |  | CCCCn1c(Cc2ccc(OC)cc2)nc2c(N)ncnc21 [PU1]
